Among the data in patent publication US6403594B1, “Benzopyran derivatives” (Recordati, S.A. Chemical and Pharmaceutical Company, priority 1999, dated 2002) are Ki values, retold here.

Where a name gives a salt, the structure may show the parent alone.

Assay [1] has as its target T1, α1a-adrenoceptor (recombinant) (Homo sapiens, UniProt P35348).
T1 construct: expressed in transfected cells
T1 sequence (P35348 1-466): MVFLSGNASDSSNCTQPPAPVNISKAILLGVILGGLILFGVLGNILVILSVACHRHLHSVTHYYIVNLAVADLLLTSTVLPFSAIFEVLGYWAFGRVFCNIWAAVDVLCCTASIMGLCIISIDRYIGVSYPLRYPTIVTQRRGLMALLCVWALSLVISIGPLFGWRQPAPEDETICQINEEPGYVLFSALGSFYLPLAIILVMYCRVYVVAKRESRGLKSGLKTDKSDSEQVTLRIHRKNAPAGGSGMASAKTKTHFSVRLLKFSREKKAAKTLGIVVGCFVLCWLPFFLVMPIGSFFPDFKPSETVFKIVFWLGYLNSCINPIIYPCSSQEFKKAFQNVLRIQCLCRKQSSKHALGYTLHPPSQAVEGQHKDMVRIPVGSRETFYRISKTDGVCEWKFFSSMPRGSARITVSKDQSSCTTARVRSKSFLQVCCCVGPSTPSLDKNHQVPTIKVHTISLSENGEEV
Put plainly: Radioligand binding, cloned α1a-adrenoceptor ([3H]prazosin). Conditions: read-out: Affinity for recombinant α1a-adrenoceptor, cloned receptors (Ki). As to the method:
(§1) Determination of affinity for cloned subtypes of α1-adrenoceptor subtypes was performed in membranes from cells transfected by electroporation with DNA expressing the genes encoding each α1-adrenoceptor subtype.
(§2) Non-specific binding was determined in the presence of 10 μM phentolamine.
(§3) Incubation was stopped by addition of ice-cold Tris buffer and rapid filtration through 0.2% polyethyleneimine-pretreated Schleicher & Schuell GF52 filters.
(§4) Data were expressed as mean Ki.

In assay [2] the target is T2, α1b-adrenoceptor (recombinant) (Homo sapiens, UniProt P35368).
T2 construct: expressed in transfected cells
T2 sequence (P35368 1-520): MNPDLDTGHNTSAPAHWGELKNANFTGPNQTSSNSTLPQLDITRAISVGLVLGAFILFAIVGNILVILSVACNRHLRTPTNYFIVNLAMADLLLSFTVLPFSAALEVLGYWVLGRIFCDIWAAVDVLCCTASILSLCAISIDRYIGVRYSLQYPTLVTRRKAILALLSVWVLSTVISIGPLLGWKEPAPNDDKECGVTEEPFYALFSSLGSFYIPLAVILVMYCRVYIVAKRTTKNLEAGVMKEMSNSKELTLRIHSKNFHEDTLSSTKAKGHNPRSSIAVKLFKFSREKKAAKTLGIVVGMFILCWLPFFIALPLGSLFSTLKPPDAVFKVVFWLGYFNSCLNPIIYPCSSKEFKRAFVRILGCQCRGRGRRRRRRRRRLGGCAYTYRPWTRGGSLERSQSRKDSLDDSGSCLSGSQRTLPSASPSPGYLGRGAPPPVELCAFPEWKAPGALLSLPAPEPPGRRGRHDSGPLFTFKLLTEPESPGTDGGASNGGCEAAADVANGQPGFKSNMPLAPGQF
In words: Radioligand binding, cloned α1b-adrenoceptor ([3H]prazosin). Conditions: read-out: Affinity for recombinant α1b-adrenoceptor, cloned receptors (Ki). As to the method:
as §1, §2, §3, §4

The target of assay [3] is T3, α1d-adrenoceptor (recombinant) (Homo sapiens, UniProt P25100).
T3 sequence (P25100 1-572): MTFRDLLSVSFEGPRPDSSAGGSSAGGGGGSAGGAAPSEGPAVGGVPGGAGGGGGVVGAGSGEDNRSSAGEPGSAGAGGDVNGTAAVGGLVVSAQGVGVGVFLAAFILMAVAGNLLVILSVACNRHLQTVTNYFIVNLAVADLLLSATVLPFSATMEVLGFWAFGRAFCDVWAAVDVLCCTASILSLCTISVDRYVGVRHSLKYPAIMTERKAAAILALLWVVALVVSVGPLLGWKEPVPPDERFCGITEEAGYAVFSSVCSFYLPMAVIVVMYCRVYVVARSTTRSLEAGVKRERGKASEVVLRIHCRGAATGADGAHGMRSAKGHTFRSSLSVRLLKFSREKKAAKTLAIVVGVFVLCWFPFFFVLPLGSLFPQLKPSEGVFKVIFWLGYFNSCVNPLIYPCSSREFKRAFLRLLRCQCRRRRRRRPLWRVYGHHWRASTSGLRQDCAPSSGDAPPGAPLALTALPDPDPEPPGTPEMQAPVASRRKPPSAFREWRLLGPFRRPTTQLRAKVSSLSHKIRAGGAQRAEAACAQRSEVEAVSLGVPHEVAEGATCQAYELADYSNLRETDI
In words: Radioligand binding, cloned α1d-adrenoceptor ([3H]prazosin). Particulars: read-out: Affinity for recombinant α1d-adrenoceptor, cloned receptors (Ki). As to the method: as §1, §2, §3, §4

The target in assay [4] is T4, 5HT1A-serotoninergic receptor (Homo sapiens, UniProt P08908).
T4 sequence (P08908 1-422): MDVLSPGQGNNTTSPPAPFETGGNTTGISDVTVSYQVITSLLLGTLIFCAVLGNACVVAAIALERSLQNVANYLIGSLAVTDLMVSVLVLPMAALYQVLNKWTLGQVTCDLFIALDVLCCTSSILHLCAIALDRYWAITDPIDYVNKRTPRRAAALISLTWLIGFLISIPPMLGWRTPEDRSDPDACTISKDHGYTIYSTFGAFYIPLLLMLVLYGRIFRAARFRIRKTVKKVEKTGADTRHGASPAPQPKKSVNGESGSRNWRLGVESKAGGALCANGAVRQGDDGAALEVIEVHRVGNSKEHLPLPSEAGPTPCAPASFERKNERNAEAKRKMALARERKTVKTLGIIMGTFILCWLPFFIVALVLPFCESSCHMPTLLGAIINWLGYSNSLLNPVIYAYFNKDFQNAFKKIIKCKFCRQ
Put plainly: Radioligand binding, cloned 5-HT1A-serotoninergic receptor in HeLa membranes ([3H]8-OH-DPAT). Also noted: expressed in transfected cells; host or cells: HeLa. Conditions: cloned human 5-HT1A receptor in HeLa membranes, mean Ki, read-out: Affinity for 5-HT1A receptor, cloned receptors (Ki). As to the method: HeLa cells were grown as monolayers in Dulbecco's Modified Eagle medium (DMEM) supplemented with 10% foetal calf serum and gentamicin (100 μg/mL), 5% CO2, at 37° C. The cells were detached from the growth flask at 95% confluence by a cell scraper and were lysed in ice-cold Tris-5-mM and EDTA-5-mM buffer (pH 7.4). The homogenates were centrifuged at 40000×g×20 minutes and the membranes were resuspended in a small volume of ice-cold buffer containing Tris 5 mM and EDTA 5 mM (pH 7.4), and immediately frozen and stored at −70° C. until use.
Non-specific binding was determined in the presence of 10 μM 5-HT. The incubation was stopped by addition of ice-cold Tris buffer and rapid filtration through 0.2% polyethyleneimine-pretreated Schleicher & Schuell filters.
as §4

Take `COc1ccc(Cl)cc1N1CCN(CCCNC(=O)c2cccc3c(=O)c(C)c(C(C)=O)oc23)CC1` [Example 2, 2-Acetyl-8-{3-[4-(5-chloro-2-methoxyphenyl)-1-piperazinyl]propylcarbamoyl}-3-methyl-4-oxo-4H-1-benzopyran]: the Ki (usually a dissociation constant, usually derived from enzyme kinetics or from competition with a known ligand) worked out at 0.32 nM in assay [1], 2.34 nM in assay [2], 2.68 nM in assay [3] and 12.3 nM in assay [4].

For `CNC(=O)c1oc2c(C(=O)NCCCN3CCN(c4cc(Cl)ccc4OC)CC3)cccc2c(=O)c1C` [Example 5, 8-{3-[4-(5-Chloro-2-methoxyphenyl)-1-piperazinyl]propylcarbamoyl}-3-methyl-2-methylcarbamoyl-4-oxo-4H-1-benzopyran], the Ki in assay [1] was found to be 0.57 nM; in assay [2], 2.39 nM; in assay [3], 2.05 nM; in assay [4] it was 23.1 nM.

Regarding `Cc1c(C(N)=O)oc2c(C(=O)NCCCN3CCN(c4ccc(F)cc4OCC(F)(F)F)CC3)cccc2c1=O` [Example 7, 2-Carbamoyl-8-<3-{4-[4-fluoro-2-(2,2,2-trifluoroethoxy)phenyl]-1-piperazinyl}-propylcarbamoyl>-3-methyl-4-oxo-4H-1-benzopyran], the results for the Ki in assay [1], in assay [3] and in assay [4] were 1.01 nM, 6.43 nM and 12.8 nM, respectively.

Regarding `COc1ccc(OCC(F)(F)F)cc1N1CCN(CCCNC(=O)c2cccc3c(=O)c(C)c(C(N)=O)oc23)CC1` [Example 9, 2-Carbamoyl-8-<3-{4-[2-methoxy-5-(2,2,2-trifluoroethoxy)phenyl]-1-piperazinyl}-propylcarbamoyl>-3-methyl-4-oxo-4H-1-benzopyran], the Ki was 28.6 nM in assay [1], 94.7 nM in assay [2] and 467 nM in assay [3].

`Cc1c(C(N)=O)oc2c(C(=O)NCCCN3CCN(c4ccccc4OCC(F)(F)F)CC3)cccc2c1=O` [Example 10, 2-Carbamoyl-8-<3-{4-[2-(2,2,2-trifluoroethoxy)phenyl]-1-piperazinyl}-propylcarbamoyl>-3-methyl-4-oxo-4H-1-benzopyran]: the Ki worked out at 0.173 nM in assay [1], 14.3 nM in assay [2], 6.53 nM in assay [3] and 5.54 nM in assay [4].

Take `Cc1c(C(N)=O)oc2c(C(=O)NCCCN3CCN(c4cc(Cl)ccc4O)CC3)cccc2c1=O` [Example 12, 2-Carbamoyl-8-{3-[4-(5-chloro-2-hydroxyphenyl)-1-piperazinyl]-propylcarbamoyl}-3-methyl-4-oxo-4H-1-benzopyran]: the inhibition constant Ki in assay [1] is 1.15 nM; in assay [2], 2.02 nM; in assay [3] it was 9.96 nM; in assay [4], 4.16 nM.

Take `Cc1c(C(N)=O)oc2c(C(=O)NCCCN3CCN(c4cc(Cl)ccc4OS(=O)(=O)C(F)(F)F)CC3)cccc2c1=O` [Example 13, 2-Carbamoyl-8-{3-[4-(5-chloro-2-trifluoromethanesulphonyloxyphenyl)-1-piperazinyl]propylcarbamoyl}-3-methyl-4-oxo-4H-1-benzopyran]: the Ki in assay [1] worked out at 1.61 nM; in assay [2] it was 1 nM; in assay [3], 11 nM; in assay [4], 31.4 nM.

As to `Cc1c(-c2ccccc2)oc2c(C(=O)NCCCN3CCN(c4cc(F)ccc4OCC(F)(F)F)CC3)cccc2c1=O` [Example 20, 8-<3-{4-[5-Fluoro-2-(2,2,2-trifluoroethoxy)phenyl]-1-piperazinyl}-propylcarbamoyl>-3-methyl-4-oxo-2-phenyl-4H-1-benzopyran], the Ki came to 0.07 nM in assay [1], 3.54 nM in assay [2], 0.32 nM in assay [3] and 4.46 nM in assay [4].

Turning to `COc1ccc(OCC(F)(F)F)cc1N1CCN(CCCNC(=O)c2cccc3c(=O)c(C)c(-c4ccccc4)oc23)CC1` [Example 21, 8-<3-{4-[2-Methoxy-5-(2,2,2-trifluoroethoxy)phenyl]-1-piperazinyl}-propylcarbamoyl>-3-methyl-4-oxo-2-phenyl-4H-1-benzopyran], the Ki in assay [1] turned out to be 2.54 nM; in assay [2], 31.6 nM; in assay [3], 34.7 nM; in assay [4], 257 nM.

For the compound `Cc1c(-c2ccccc2)oc2c(C(=O)NCCCN3CCN(c4cc(Cl)ccc4OS(=O)(=O)C(F)(F)F)CC3)cccc2c1=O` [Example 24, 8-{3-[4-(5-Chloro-2-trifluoromethanesulphonyloxyphenyl)-1-piperazinyl]-propylcarbamoyl}-3-methyl-4-oxo-2-phenyl-4H-1-benzopyran hydrochloride], the Ki in assay [1] came out at 4.21 nM; in assay [2], 7.8 nM; in assay [3], 33.7 nM; in assay [4], 140 nM.
